Test results from patent US12534438B2, “Cannabinoid derivative as a pharmaceutically active compound and method of preparation thereof” (priority 2020, dated 2026).
Read-outs that look alike come from different tables or passages of the source.

Columns and labels:
[1] = tested on: mouse model of generalised seizure (tonic hind limb extensor convulsions); experiment: Maximal electroshock seizure threshold (MEST) test in the mouse; details: 30 min post dose
Protocol: The efficacy of the cannabinoid derivative according to formula (I) was tested in a mouse model of generalised seizure, the maximal electroshock seizure threshold (MEST) test.
The maximal electroshock seizure threshold (MEST) test is widely utilized preclinically to evaluate pro- or anti-convulsant properties of test compounds (Loscher et al., 1991).
In the MEST test the ability of a drug to alter the seizure threshold current required to induce hind limb tonic extensor convulsions is measured according to an “up and down” method of shock titration (Kimball et al., 1957). An increase in seizure threshold is indicative of anti-convulsant effect.
The ability of a test compound to alter the stimulus intensity, expressed as current (mA), required to induce the presence of tonic hind limb extensor convulsions, is assessed in the MEST.
Naïve mice were acclimatised to the procedure room in their home cages for up to 7 days, with food and water available ad libitum.
All animals were weighed at the beginning of the study and randomly assigned to treatment groups based on a mean distribution of body weight across groups.
The first animal within a treatment group was given a shock at the expected or estimated CC50 current. For subsequent animals, the current was lowered or raised depending on the convulsions outcome from the preceding animal, in intervals of 5 mA.
Data generated from each treatment group were used to calculate the CC50±SEM values for the treatment group.
Vehicle: (5% ethanol, 10% solutol, 85% Saline) was prepared as follows: 1 mL of ethanol, 2 mL of solutol were warmed to 60° C., in 17 mL of saline (1:2:17).
The test compound, described herein as compound 1, is as shown as formula (I). Test compound was administered at 2, 20 and 200 mg/kg (i.p.) in a 1:2:17 ethanol:solutol:0.9% saline formulation.
The data for each treatment group were recorded as the number of +'s and 0's at each current level employed and this information is then used to calculate the CC50 value (current required for 50% of the animals to show seizure behaviour)±standard error.
Test compound effects were also calculated as percentage change in CC50 from the vehicle control group.
Significant difference between drug-treated animals and controls were assessed according to Litchfield and Wilcoxon (1949).

[2] = Plasma pharmacokinetics following oral dose administration to male Wistar Han rats; assay type: in vivo; details: rat, oral gavage; for half-life / AUC(0-inf) / AUC(0-t) / Cmax / Tmax: plasma
Protocol: The plasma pharmacokinetics of compound 1 was assessed following oral dose administration to male Wistar Han Rats.
The Wistar Han Rat was chosen as the animal model for this study as it is an accepted rodent species for preclinical toxicity testing by regulatory agencies. Animals were socially housed (up to 3 animals of the same group) in polycarbonate cages containing appropriate bedding equipped with water bottles and may be provided with items such as devices for hiding in, paper and/or objects for chewing, unless contraindicated by study procedures. Pelleted rodent diet were provided ad libitum throughout the study, except during designated procedures.
The 9 male animals were 8 to 10 weeks old at initiation of dosing.
Vehicle: 1% Ethanol/12% Kolliphor HS-15/87% Saline (w/w/v).
Dose formulation was prepared as follows: test item was dissolved in ethanol. Kolliphor HS-15 and saline was heated separately to 60° C., and the required amount of heated Kolliphor HS-15 added to the test item/ethanol solution. The mixture was stirred at until homogenous. Hot saline was added to the mixture to meet dose level requirements, and stirred at 60° C. until a homogenous solution. Prior to release, the formulations were allowed to cool to 40° C. Subsequently, the formulations were stored at room temperature until dosing.
Groups 1, 2 and 3: The test item was administered to the appropriate animals by oral gavage. The dose was given using a plastic feeding tube.
PK Sample Collection: From animals in Group 1 to 3 blood was collected according to the PK sample collection table (outlined in Table 3). Approximately 0.2 mL blood samples was taken from the jugular vein and collected into tubes containing K2 EDTA as anti-coagulant and stored on ice.
Sample Processing and Storage: Whole blood was processed to plasma by centrifugation (3000 g for 10 minutes at 5° C.) within 1 hour of collection. Plasma samples were transferred into labelled polypropylene tubes and stored at <−75° C. until shipment.

[3] = male, Wistar Han, in vivo, po, 15 mg/kg, 15 mg/kg (measured dose 15 mg/kg)
[4] = male, Wistar Han, in vivo, po, 45 mg/kg (measured dose 101 mg/kg)
[5] = male, Wistar Han, in vivo, po, 150 mg/kg (measured dose 204 mg/kg)

## C=C(C)[C@@H]1CCC(C)=C[C@H]1c1c(O)cc(-c2cnn(C)c2)cc1O [Compound 1, (1′R,2′R)-5′-methyl-4-(1-methyl-1H-pyrazol-4-yl)-2′-(prop-1-en-2-yl)-1′,2′,3′,4′-tetrahydro-[1,1′-biphenyl]-2,6-diol]
[1]; 2 mg/kg i.p.
  CC50 +/- SEM: 30.8 ± 1.0 mA
[1]; 20 mg/kg i.p.
  CC50 +/- SEM: 52.5 ± 1.3 mA
[1]; 200 mg/kg i.p.
  CC50 +/- SEM: 197.5 ± 20.4 mA
[1]; CC50, 2 mg/kg i.p.
  % change from vehicle: 27%
[1]; CC50, 20 mg/kg i.p.
  % change from vehicle: 116%
[1]; CC50, 200 mg/kg i.p.
  % change from vehicle: 712%
[2]; male, Wistar Han, in vivo, 15 mg/kg (measured dose 15 mg/kg)
  half-life: 3.3 h
[2]; male, Wistar Han, in vivo, 45 mg/kg (measured dose 101 mg/kg)
  half-life: 3.6 h
[2]; male, Wistar Han, in vivo, 150 mg/kg (measured dose 204 mg/kg)
  half-life: 4.3 h
[2]; [3]
  AUC(0-inf): 5330 ng·h/mL
  AUC(0-t): 4250 ng·h/mL
  Cmax: 1130 ng/mL
  Tmax: 1 h
[2]; male, Wistar Han, in vivo, po, 15 mg/kg, 15 mg/kg (measured dose 15 mg/kg), read-out: Bioavailability
  bioavailability: 69.6%
[2]; [4]
  AUC(0-inf): 48300 ng·h/mL
  AUC(0-t): 47900 ng·h/mL
  Cmax: 4010 ng/mL
  Tmax: 1 h
[2]; male, Wistar Han, in vivo, po, 45 mg/kg (measured dose 101 mg/kg), read-out: Bioavailability
  bioavailability: 96.4%
[2]; [5]
  AUC(0-inf): 105000 ng·h/mL
  AUC(0-t): 101000 ng·h/mL
  Cmax: 6730 ng/mL
  Tmax: 8 h
[2]; male, Wistar Han, in vivo, po, 150 mg/kg (measured dose 204 mg/kg), read-out: Bioavailability
  bioavailability: 107%
[2]; across concentrations (15, 45, 150 mg/kg)
  bioavailability: high

## CN1C(=O)CN=C(c2ccccc2)c2cc(Cl)ccc21 [Diazepam, diazepam, reference compound]
[1]; CC50, diazepam 2.5 mg/kg i.p.
  % change from vehicle: 223%
